Test results reported in US9040725B2, “Benzocycloheptane and benzoxepine derivatives” (Janssen Pharmaceutica NV, priority 2008, dated 2015).
Structures can show the parent of a compound that is named as a salt. Where two headings read alike, the source gives them in different places. Ends that are not written are not given here.

Tests used:
GHS1A-receptor = target: T1, GHS1A-receptor (Homo sapiens, UniProt Q92847); test: Ghrelin-agonism in HEK293 cells (intracellular calcium, FLIPR); format: cell-based; conditions: HEK293 cells permanently transfected with GHS1A-receptor, calcium fluorescence (fluo-4 or Kit-3), EC50 in M, read-out: pEC50 (converted)
T1 construct: expressed in transfected cells; host or cells: HEK293
T1 sequence (Q92847 whole entry): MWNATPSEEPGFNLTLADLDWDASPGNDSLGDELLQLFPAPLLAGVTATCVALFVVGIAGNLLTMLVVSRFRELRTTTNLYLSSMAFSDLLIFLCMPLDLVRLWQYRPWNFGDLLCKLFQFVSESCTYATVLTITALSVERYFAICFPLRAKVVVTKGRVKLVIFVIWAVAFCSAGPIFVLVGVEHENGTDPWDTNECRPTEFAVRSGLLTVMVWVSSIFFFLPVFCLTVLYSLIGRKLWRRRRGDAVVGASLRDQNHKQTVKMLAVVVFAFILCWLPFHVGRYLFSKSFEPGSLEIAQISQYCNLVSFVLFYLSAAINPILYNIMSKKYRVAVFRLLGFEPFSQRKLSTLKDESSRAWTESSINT
Protocol: One day before the experiment, HEK293 cells, permanently transfected with the gene sequence for expression of the GHS1A-receptor, were seeded in poly-D-Lysine coated 96-well plates with clear bottom, and allowed to grow to […] of confluence on the next day.
Then, cells were incubated with the calcium-sensitive intracellular fluorescent probe fluo-4 or Kit-3 for 1 h at 37° C. Fluorescence representing free intracellular calcium in the cells was measured in a FLIPR-system (excitation at 488 nm, emission>520 nm). Test compounds were added to each well at the desired concentration and the fluorescence signal was simultaneously recorded in all wells. Release of intracellular calcium triggered by activation of the receptors upon addition of the test compound was measured as the fluorescence emitted from the complex of calcium and the fluorescent probe. The drug effect on fluorescence intensity was expressed relative to the maximal fluorescence intensity measured in cells exposed to the calcium-ionophore ionomycin.

NMRI-mice = test: Acceleration of gastric emptying and small intestinal propulsion in NMRI-mice; format: in vivo; conditions: Mus musculus, sc, lowest active dose, subcutaneous, 30 min before phenol red test meal
Protocol: (§1) Male NMRI-mice weighing around 25 gram were fasted for 20 h and had free access to drinking water. Test compounds were administered to the animals by subcutaneous route 30 min before they were given a test meal by oral gavage. The test meal consisted of 0.3 ml of a chocolate nutridrink solution (1.0 kcal/ml) containing phenol red marker (5 mg/ml). Fifteen min after administration of the meal, the mice were sacrificed by CO2 gas inhalation. The phenol red content remaining in the stomach (extracted from the stomach with NaOH) was determined at 557 nm in a spectrophotometer and expressed as extinction units. Small intestinal propulsion was determined as the distance traveled by the phenol red marker through the intestine and expressed as a percentage of total small intestinal length (from the pylorus to the ileo-cecal junction).
The lowest dose that was active for each parameter was noted as the lowest active dose (LAD). Table 12 discloses LAD values.

GHS1A-r-/- (KO) mice = test: Acceleration of gastric emptying in GHS1A-r-/- (KO) mice; format: in vivo; conditions: 10 mg/kg subcutaneous 30 minutes before test meal, 15 minutes after meal
Protocol: (§2) FIG. 1 describes the gastric content (measured as extinction units of phenol red) remaining 15 minutes after administration of a phenol red containing test meal by oral gavage in GHS1A-r^+/+ (WT) and GHS1A-r^−/− (KO) mice pretreated with saline (Vehicle) or compound 3 (10 mg/kg SC) 30 minutes before the meal (individual data and mean, n=3).
as §1, with “junction). […]” for “junction).”

GHS1A-r+/+ (WT) mice = test: Acceleration of gastric emptying in wild type (GHS1A-r+/+, WT) mice; format: in vivo; conditions: 10 mg/kg subcutaneous 30 minutes before test meal, 15 minutes after meal
Protocol: as §2
as §1, with “junction). […]” for “junction).”

mice = test: In house study: gastric emptying of a test meal after intravenous ghrelin in mice; format: in vivo; conditions: intravenous administration to mice; 95% confidence interval 0.058-0.174
Text: (§3) These observations confirm that the gastrointestinal pro-kinetic properties of ghrelin-ligands are mediated by direct interaction with GHS1A-r. Small molecules showing affinity for the GHS1A-r and activating it are therefore anticipated to stimulate gastrointestinal motility in general, and gastric emptying in particular.

[1] = tested on: transgenic mice with a deletion of GHS1A-r; test: In house study: gastric emptying after ghrelin in transgenic mice with a deletion of GHS1A-r; format: in vivo; conditions: administered up to 2.5 mg/kg
Text: as §3

[2] = active when >60% of animals had phenol red front beyond 85% of small intestinal length, read-out: LAD (mg/kg) Small intestinal propulsion
[3] = stomach content 15 min after meal, active when >60% of animals below 0.9 extinction units, read-out: LAD (mg/kg) Gastric emptying

| Compound | melting point | EC50 (GHS1A-receptor) | also measured |
| --- | --- | --- | --- |
| CCN(CC)CCCC1(O)c2ccccc2CCCC1c1cccc(Cl)c1 (racemic) (as salt: oxalate) [Compound 41] | 160.3 °C |  |  |
| OC1(CCCN2CCCC2)c2ccccc2CCCC1c1ccc(Cl)cc1 (racemic) (as salt: oxalate) [Compound 48] | 236.2 °C |  |  |
| OC1(CCCN2CCCCC2)c2ccccc2CCCC1c1ccc(Cl)cc1 (racemic) (as salt: oxalate) [Compound 50] | 201.1 °C |  |  |
| CCN(CC)CCCC1(O)c2ccccc2CCCC1c1ccc(F)cc1F (racemic) (as salt: oxalate) [Compound 57] | 160.3 °C |  |  |
| Cc1ccc(C2CCCc3ccccc3C2(O)CCCN2CCCC2)cc1 (racemic) [Compound 28] | 139.8 °C | 158 nM | minimal effective dose (NMRI-mice; [2]): > 10 mg/kg; minimal effective dose (NMRI-mice; [3]): > 10 mg/kg |
| CC(=O)N1CCN(CCCC2(O)c3ccccc3CCCC2c2ccc(C)cc2)CC1 (racemic) [Compound 34] | 216.2 °C | 3160 nM |  |
| CCN(CC)CCCC1(O)c2ccccc2CCCC1c1ccc(O)cc1 (racemic) [Compound 36] | 141.4 °C | 6310 nM |  |
| CN(C)CCC[C@@]1(O)c2ccccc2OCC[C@@H]1c1ccccc1 (relative stereo) (as salt: oxalate) [Compound 8] | 136 °C |  |  |
| Oc1ccc([C@H]2CCCc3ccccc3[C@]2(O)CCCN2CCOCC2)cc1 (relative stereo) [Compound 7] | 177.1 °C |  |  |
| CN(C)CCCC1(O)c2ccccc2CCCC1c1ccc(Cl)cc1 (single isomer, unassigned) (as salt: oxalate) [Compound 3] | 168.7 °C |  |  |
| CN(C)CCCC1(O)c2ccccc2CCCC1c1ccc(Cl)cc1 (single isomer, unassigned) [Compound 3] |  | 20 nM | minimal effective dose (NMRI-mice; [2]): 0.63 mg/kg; minimal effective dose (NMRI-mice; [3]): 0.63 mg/kg; meal content remaining in the stomach versus vehicle (GHS1A-r-/- (KO) mice): no difference in remaining gastric content; meal content remaining in the stomach versus vehicle (GHS1A-r+/+ (WT) mice): emptied more than vehicle treated WT mice |
| ghrelin (GSSFLSPEHQRVQQRKESKKPPAKLQPR; ends and bridges not checked; UniProt Q9UBU3 24-51, looked up) ["an endogenous peptide hormone ... the natural ligand for the type 1 growth hormone secretagogue receptor (GHS1A-r)"] |  |  | ED50 stimulation of gastric emptying of a test meal (mice): 0.100 mg/kg; effect on gastric emptying [1]: no effect |

More lines, main results first:

| melting point | EC50 (GHS1A-receptor) | Compound | also measured |
| --- | --- | --- | --- |
| 140 °C |  | COCCN(C)CCCC1(O)c2ccccc2CCCC1c1ccc(F)cc1F (racemic) (as salt: oxalate) [Compound 58] |  |
| 211.5 °C |  | OC1(CCCN2CCCCC2)c2ccccc2CCCC1c1ccc(F)cc1F (racemic) (as salt: oxalate) [Compound 59] |  |
| 134.3 °C |  | CNCCCC1(O)c2ccccc2CCCC1c1ccc(OC)cc1 (racemic) (as salt: oxalate) [Compound 65] |  |
| 100 °C |  | COc1ccc(C2CCCc3ccccc3C2(O)CCCN(C)C)cc1 (racemic) (as salt: oxalate) [Compound 66] |  |
| 153 °C |  | CCN(CC)CCCC1(O)c2ccccc2CCCC1c1ccc(OC)cc1 (racemic) (as salt: oxalate) [Compound 67] |  |
| 132.2 °C |  | COCCN(C)CCCC1(O)c2ccccc2CCCC1c1ccc(OC)cc1 (racemic) (as salt: oxalate) [Compound 70] |  |
| 153 °C | > 10000 nM | COc1cccc(C2CCCc3ccccc3C2(O)CCCN2CCN(C(C)=O)CC2)c1 (racemic) [Compound 63] |  |
| 165.1 °C | > 10000 nM | COc1ccc(C2CCCc3ccccc3C2(O)CCCN2CCN(C(C)=O)CC2)cc1 (racemic) [Compound 71] |  |
| 134.3 °C | 7940 nM | CN(C)CCCC1(O)c2ccccc2CCCC1c1cncnc1 (racemic) [Compound 84] |  |
| 150.3 °C | 100 nM | CN(C)CCCC1(O)c2ccccc2CCCC1c1cnc2ccccc2c1 (racemic) [Compound 85] | minimal effective dose (NMRI-mice; [2]): > 10 mg/kg; minimal effective dose (NMRI-mice; [3]): > 10 mg/kg |
| 115.2 °C | 631 nM | CC(C)NCCCC1(O)c2ccccc2CCCC1c1cnc2ccccc2c1 (racemic) [Compound 86] |  |
| 210 °C |  | CN(C)CCCC1(O)c2ccccc2CCCC1c1ccccc1 (single isomer, unassigned) (as salt: oxalate) [Compound 104] |  |
| 178 °C |  | CN(C)CCCC1(O)c2ccccc2CCCC1c1ccccc1 (single isomer, unassigned) (as salt: oxalate) [Compound 105] |  |
